Earlier results in patent US8748695B2, “Molecular markers linked to PPO inhibitor tolerance in soybeans” (Pioneer Hi-Bred International, Inc., priority 2008, dated 2014).

Assays:
soybean cultivars = conditions: in vivo

SMILES	Growth Reduction Index (soybean cultivars) [%]	half-life
Cc1nn(-c2cc(NS(C)(=O)=O)c(Cl)cc2Cl)c(=O)n1C(F)F [sulfentrazone]	20	
Cc1nn(-c2cc(CC(Cl)C(=O)O)c(Cl)cc2F)c(=O)n1C(F)F (centres unmarked) [Carfentrazone]		approximately 4 days
